Experimental data: patent US8614179B2, “Antibacterial combination therapy for the treatment of gram positive bacterial infections” (E-Therapeutics PLC, priority 2008, dated 2013)
Where two headings read alike, the source gives them in different places.

Columns and labels:
[1] = test system: Enterococcus faecium (VRE); assay: microbe, parasite or virus in culture; type: cell-based; settings: read-out: MIC
Procedure: (§1) In example experiments miconazole nitrate, econazole nitrate and clotrimazole were dissolved in DMSO. Colistin, D-cycloserine, fosfomycin and polymixin B were dissolved in water. Nisin was suspended at 10 mg/mL in 0.02 M HCl, and the supernatant fraction following centrifugation at 10,000 g for 10 mins was used in the following experiments.
(§2) Other solvents that may be used include caster oil, pyridine, and 0.9% saline. For IV administration agents may be solubilised in polyethoxylated caster oil, or cyclodextrins such as sulfobutylether7-βcyclodextrin or hydroxypropyl-β-cyclodextrin and lactic acid. Minimum inhibitory concentrations (MICs) of a range of clinical and control bacterial organisms were measured according to BSAC (British Society for Antimicrobial Chemotherapy) guidelines (Andrews 2001), for single agents. The method of determining MICs of imidazole with colistin, D-cycloserine, fosfomycin, polymixin B, or nisin is described briefly as follows. MICs were measured by agar dilution. Kill curves were performed in accordance with the methods of Garrison and Nuemiller, 2007. Briefly kill profiles were generated by logarithmically plotting mean CFU/mL data over time. Total logarithmic reductions in bacterial counts were determined by subtracting 24 h CFU/mL values from starting inocula.
Stock solutions were prepared at concentrations of 1000 mg/L and 100 mg/L. To determine the MIC of miconazole, the appropriate amount of each stock solution were added to separate Petri dishes give a range of final concentrations (after the addition of 20 mL molten agar): from 0.12 to 32 mg/L. To determine the MICs of miconazole with the specific agent active on a bacterial cell surface, these concentrations of miconazole were used in addition to a fixed sub-inhibitory amount of the agent active on a bacterial cell surface. […] Volumes (20 mL) of cooled molten IST agar (oxoid) was added to each Petri dish and mixed by swirling. After drying, the plates were stored at 4° C. and protected from light. Plates were used on the day of preparation.
The test organisms were grown overnight in 5 mL IST broth. Using a dilution in 0.9% saline of 1:100, the appropriate agar plates were inoculated using a multipoint inoculator.
Agar plates and microtitre plates were incubated at 37° C. in air for 18-20 hours.
The MIC is the minimum amount of an antibiotic at which there is no visible growth of bacteria. Tiny single colonies or faint hazes were not counted as growth. Synergy was reported if the inhibitory effect of the drugs in combination were greater than the sum of the inhibitory effects of each drug singly. The concentration of miconazole, with or without the cell membrane or cell wall active agent, capable of inhibiting the growth of 50% and 90% of the strains tested is reported as the MIC50 and MIC90 respectively. The range of MICs for each group of bacterial strains is also reported.

[2] = test system: E1 E. gall ATCC 12359 VanC; assay: organism not typed; type: cell-based; settings: Table 4; strain E1 E. gall ATCC 12359 VanC; agents singly or miconazole MIC with 2.5 mg/L nisin
Procedure: as §1
as §2, with “Briefly kill profiles were generated by logarithmically plotting mean CFU/mL data over time.” left out, “inocula. […]” for “inocula.”
The MIC is the minimum amount of an antibiotic at which there is no visible growth of bacteria. Tiny single colonies or faint hazes were not counted as growth. […]

SMILES: Clc1ccc(COC(Cn2ccnc2)c2ccc(Cl)cc2Cl)c(Cl)c1 (stereo not shown) [Miconazole, 1-[2-(2,4-Dichlorophenyl)-2-[(2,4-dichlorophenyl)methoxy]ethyl]-1H-imidazole]
- MIC ([1]; ATCC 7171 / VRE, Table 4, strain E. faecium ATCC 7171, agents singly or miconazole MIC with 2.5 mg/L nisin): 0.5 mg/L
- MIC ([1]; VRE, Table 4, strain E15 VanAATCC4147 E. faecium, agents singly or miconazole MIC with 2.5 mg/L nisin): 2 mg/L
- MIC ([1]; VRE, Table 4, strain E. faecium VanR B145344C LFE, agents singly or miconazole MIC with 2.5 mg/L nisin): 4 mg/L
- MIC [2]: 1 mg/L
